Source: patent EP0293500A1, “3-heteroalkyl-2,4.quinzaoline-diones” (AMERICAN CYANAMID COMPANY, priority 1987, dated 1988)
Counter-ions that a name gives are not always drawn.

Experiments:
[1] = tested on: spontaneously hypertensive rats of the Okamoto strain; assay: Hypotensive activity in spontaneously hypertensive rats (method of Chan and Poorvin); format: in vivo; conditions: male SHR, average MABP 160±1.5 mm of mercury; gavage, 100 mg/kg or less, second identical dose 24 hours later; MABP at 28 hours after the initial dose; number of rats in brackets
Procedure: The novel compounds of the present invention are also active hypotensive agents and were tested for hypotensive activity by the method of P. S. Chan and b. Poorvin, Clinical and Experimental Hypertension, 1 (6), 817-830 (1979). Male, 16 week old, spontaneously hypertensive rats of the Okamoto strain, from Taconic Farms, Germantown, New York having an average mean arterial blood pressure of 160±1.5 mm of mercury were used in the test. […] A second identical dose of the test compound, without sodium chloride loading is given 24 hours later. At 28 hours after the initial dose, the mean arterial blood pressure (MABP) is measured by the method of Chan and Poorvin vide supra. The procedure is repeated in a second and third rat when necessary. The results of this test on representative compounds of the present invention appear in Table II below.

thromboxane synthetase = molecular target: T1, thromboxane synthetase (Rattus norvegicus, UniProt P49430); assay: Inhibition of thromboxane (TX) formation (TXB2 radioimmunoassay) in washed rat platelets; format: cell-based, Okamoto-Aoki spontaneously hypertensive rats (SHR); conditions: percent inhibition of TXB2 formation; drug at 10^-4M; SHR platelet suspension, 10 minutes at 37 C
T1 construct: The platelets were isolated by centrifuging the PRP for 10 minutes at 1060xg; from tissue; host or cells: washed blood platelets from Okamoto-Aoki spontaneously hypertensive rats (SHR)
T1 sequence (P49430 1-533): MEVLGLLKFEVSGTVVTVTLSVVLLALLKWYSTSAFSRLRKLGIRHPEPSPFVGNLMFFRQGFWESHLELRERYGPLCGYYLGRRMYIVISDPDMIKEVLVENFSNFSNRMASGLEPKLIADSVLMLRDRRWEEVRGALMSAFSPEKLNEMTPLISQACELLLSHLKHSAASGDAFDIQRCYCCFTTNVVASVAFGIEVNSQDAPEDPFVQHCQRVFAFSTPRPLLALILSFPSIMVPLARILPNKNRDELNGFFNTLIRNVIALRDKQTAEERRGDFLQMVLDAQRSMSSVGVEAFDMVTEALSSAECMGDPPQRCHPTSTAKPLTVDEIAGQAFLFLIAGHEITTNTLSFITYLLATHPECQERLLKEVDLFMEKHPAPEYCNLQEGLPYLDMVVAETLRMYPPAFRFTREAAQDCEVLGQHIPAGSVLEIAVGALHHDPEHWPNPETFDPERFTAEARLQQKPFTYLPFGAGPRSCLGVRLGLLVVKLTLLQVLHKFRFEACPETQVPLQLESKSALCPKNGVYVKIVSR
Excerpt: The platelet rich plasma (PRP) was separated. […] The inhibition of thromboxane (TX) formation was studied by determing the concentration of thromboxane […] (TXB2), the stable hydrolysis product of TXA2.

O=c1c2cc(Cl)ccc2nnn1CCCCCn1ccnc1 [Example 99, 6-Chloro-3-[5-(1H-imidazol-1-yl)pentyl]-1,2,3-benzotriazin-4(3H)-one]
MABP/mm Hg (no. of rats) [1]: 117(2) mm Hg
inhibition at 100 µM (thromboxane synthetase): 82%

O=c1c2cc(Cl)ccc2ncn1CCCCCCCCn1ccnc1 [Example 143, 6-Chloro-3-[8-(1H-imidazol-1-yl)octyl]-4(3H)-quinazolinone]
MABP/mm Hg (no. of rats) [1]: 118(2) mm Hg
inhibition at 100 µM (thromboxane synthetase): 70%

O=c1c2ccccc2nnn1CCCCCCn1ccnc1 [Example 102, 3-[6-(1H-Imida-zol-1-yl)hexyl]-1,2,3-benzotria-zin-4(3H)-one, monohydrochloride]
MABP/mm Hg (no. of rats) [1]: 87(2) mm Hg
inhibition at 100 µM (thromboxane synthetase): 96%

O=c1c2ccccc2ncn1CCCCn1ccnc1 [Example 123, 3-[4-(1H-Imidazol-1-yl)butyl]-4(3H)-quinazolinone, dihydro-chloride]
MABP/mm Hg (no. of rats) [1]: 117(3) mm Hg
inhibition at 100 µM (thromboxane synthetase): 83%

O=c1[nH]c2ccc(Br)cc2c(=O)n1CCCCn1ccnc1 [Example 12, 6-Bromo-3-[4-(1H-imidazol-1-yl)butyl]-2,4(1H,3H)-quinazolinedione]
MABP/mm Hg (no. of rats) [1]: 107(2) mm Hg
inhibition at 100 µM (thromboxane synthetase): 98%

CC(Cn1ccnc1)Cn1c(=O)[nH]c2cc(Cl)ccc2c1=O (stereo not shown) [Example 42, 7-Chloro-3-[3-(1H-imidazol-1-yl)-2-methylpropy]-2,4(1H,3H)-quinazolinedione]
MABP/mm Hg (no. of rats) [1]: 121(2) mm Hg
inhibition at 100 µM (thromboxane synthetase): 75%

CC(Cn1ccnc1)Cn1cnc2ccccc2c1=O.Cl.Cl (stereo not shown) [Example 134, 3-[3-(1H-Imidazol-1-yl)-2-methylpropyl]-4(3H)-quinazolinone, dihydrochloride]
MABP/mm Hg (no. of rats) [1]: 121(2) mm Hg
inhibition at 100 µM (thromboxane synthetase): 100%

CC(CCn1cnc2ccc(Cl)cc2c1=O)n1ccnc1 (stereo not shown) [Example 140, 6-Chloro-3-[3-(1H-Imidazol-1-yl)butyl]-4(3H)-quinazolinone]
MABP/mm Hg (no. of rats) [1]: 114(2) mm Hg
inhibition at 100 µM (thromboxane synthetase): 100%

O=c1[nH]c2cc(Cl)ccc2c(=O)n1CCCCn1ccnc1 [Example 40, 7-Chloro-3-[4-(1H-imidazol-1-yl)butyl]-2,4(1H,3H)-quinazolinedione]
MABP/mm Hg (no. of rats) [1]: 102(2) mm Hg
inhibition at 100 µM (thromboxane synthetase): 59%

O=c1c2ccccc2nnn1CCCCCn1ccnc1 [Example 101, 3-[5-(1H-Imida-zol-1-yl)pentyl]-1,2,3-benzotria-zin-4(3H)-one, monohydrochloride]
MABP/mm Hg (no. of rats) [1]: 113(2) mm Hg
inhibition at 100 µM (thromboxane synthetase): 67%

O=c1c2cc(Cl)ccc2nnn1CCCCCCn1ccnc1 [Example 100, 6-Chloro-3-[6-(1H-imidazol-1-yl)hexyl]-1,2,3-benzotriazin-4(3H)-one]
MABP/mm Hg (no. of rats) [1]: 109(2) mm Hg
inhibition at 100 µM (thromboxane synthetase): 73%

Cc1ccc2ncn(CCC(C)n3ccnc3)c(=O)c2c1 (stereo not shown) [Example 127, 3-[3-(1H-Imidazol-1-yl)butyl]-6-methyl-4(3H)-quinazolinone]
MABP/mm Hg (no. of rats) [1]: 133(4) mm Hg
inhibition at 100 µM (thromboxane synthetase): 87%

Cc1ccc2c(=O)n(CCCCn3ccnc3)nnc2c1C.Cl [Example 86, 3-[4-(1H-Imidazol-1-yl)butyl]-7,8-dimethyl-1,2,3-benzotriazin-4(3H)-one, monohydrochloride]
MABP/mm Hg (no. of rats) [1]: 121(2) mm Hg
inhibition at 100 µM (thromboxane synthetase): 93%

CC(Cn1ccnc1)Cn1nnc2ccc([N+](=O)[O-])cc2c1=O.O (stereo not shown) [Example 87, 3-[3-(1H-Imidazol-1-yl)-2-methyl-propyl]-6-nitro-1,2,3-benzo-triazin-4(3H)-one, hydrate]
MABP/mm Hg (no. of rats) [1]: 114(2) mm Hg
inhibition at 100 µM (thromboxane synthetase): 95%

O=c1c2ccccc2nnn1CCCCn1ccnc1 [Example 75, 3-[4-(1 H-Imidazol-1-yl)butyl]-1,2,3-benzotriazin-4(3H)-one]
MABP/mm Hg (no. of rats) [1]: 114(2) mm Hg
inhibition at 100 µM (thromboxane synthetase): 68%

O=c1c2cc(Cl)ccc2ncn1CCCCn1ccnc1 [Example 124, 6-Chloro-3-[4-(1H-imidazol-1-yl)-butyl]-4(3H)-quinazolinone, dihydro-chloride]
MABP/mm Hg (no. of rats) [1]: 106(2) mm Hg
inhibition at 100 µM (thromboxane synthetase): 99%

CC(Cn1ccnc1)Cn1c(=O)[nH]c2ccc(Cl)cc2c1=O (stereo not shown) [Example 31, 6-Chloro-3-[3-(1H-imidazol-1-yl)-2-methylpropyl]-2,4(1H,3H)-quinazolinedione]
MABP/mm Hg (no. of rats) [1]: 126(3) mm Hg
inhibition at 100 µM (thromboxane synthetase): 100%
